Patent US9624195B2, “Isoquinoline compounds” (Gilead Sciences, Inc., priority 2014, dated 2017)
Read-outs that look alike come from different tables or passages of the source.

Legend:
Format in all cases: cell-based
HIV-1 HBX2 (wild type) = assay: High throughput cytopathic effect assay in MT-4 cells, HIV-1 wild type
From the text: (§1) Compounds were screened in a miniaturized, high throughput cytopathic effect assay for activity against HIV-1 HBX2 (wild type) and HIV-1 reverse transcriptase mutants K103N and Y181C. In Tables 1 and 2 below, “w.t.” refers to results of the tested compounds run with the wildtype 1 and “w.t. assay 2” refers results of the tested compounds run with the wildtype on the same day as the testing of the compounds with the mutants. Thus, “w.t. assay 2” was run under the same conditions as the testing of the compounds with the mutants and provides a direct comparison with the results from the testing with the mutants.
(§2) Ten-point serial dilutions of compounds with half-log step size were generated in DMSO. AZT (5 μM) was used as the positive control and DMSO as the negative control. The Echo acoustic dispenser was used to deliver 200 nL of serially diluted compound into sterile 384 well tissue culture assay plates. Two million MT-4 cells were incubated with each of the 3 viruses at MOI of 0.0005 in separate 1 mL infection tubes for 1 hour at 37° C. The cells were diluted in cell culture medium (RPMI+10% FBS) to 50,000 cells/mL. The infected cells were added to 384 well assay plates containing serially dilute compounds. Assay plates were incubated for 5 days in a humidified incubator set at 37° C. and 5% CO2. To measure the cytopathic effect of HIV, 40 μL Cell TiterGlo was added to each well and the resulting luminescence signal is read with the Envision plate reader (Perkin Elmer). Data were normalized to positive and negative controls in each plate and expressed as % CPE Protection. EC50 values were defined as the compound concentration that caused a 50% […] in luminescence signal, and were calculated by non-linear regression using Pipeline Pilot software by applying a four parameter fit equation (Accelrys, San Diego, Calif.).
(§3) The high-throughput screening was also run for nevirapine (“NPV”), rilpivirine (“RPV”), and efavirenz (“EFV”). Nevirapine was obtained from Toronto Research Chemicals, Inc. (Toronto, Canada; Catalogue #N391275). Rilpivirine was obtained from Key Organics Ltd. (Camelford, Cornwall, United Kingdom; Catalogue #KE-0036). Efavirenz was obtained from Toronto Research Chemicals, Inc. (Toronto, Canada; Catalogue #E425000). Further details and background can be found in Janssen et al, J. Med. Chem, 2005, 48, 1901-1909; Das et al., Proc. Nat. Acad. Sci., 2008, vol., 105, no. 5, 1466-1471; and Kuroda et al., Nature Chemistry, 2013, DOI: 10.1038/NCHEM.1559.

[1] = system: HIV-1 reverse transcriptase mutant K103N; assay: High throughput cytopathic effect assay in MT-4 cells, HIV-1 RT mutant K103N; details: for EC50: Human immunodeficiency virus 1, MT4, read-out: MT4 EC50 (nM) against K103N; for FC against mutant K103N: fold change of EC50, K103N versus w.t. assay 2
From the text: as §1, §2, §3

[2] = system: HIV-1 reverse transcriptase mutant Y181C; assay: High throughput cytopathic effect assay in MT-4 cells, HIV-1 RT mutant Y181C; details: for EC50: Human immunodeficiency virus 1, MT4, read-out: MT4 EC50 (nM) against Y181C; for FC against mutant Y181C: fold change of EC50, Y181C versus w.t. assay 2
From the text: as §1, §2, §3

hERG channels = molecular target: T1, hERG channels (Homo sapiens, UniProt Q12809); assay: hERG assay, whole cell recordings in CHO cells stably expressing hERG channels; details: tail current, whole cell patch clamp
T1 construct: host or cells: CHO cells stably expressing hERG
T1 sequence (Q12809 whole entry): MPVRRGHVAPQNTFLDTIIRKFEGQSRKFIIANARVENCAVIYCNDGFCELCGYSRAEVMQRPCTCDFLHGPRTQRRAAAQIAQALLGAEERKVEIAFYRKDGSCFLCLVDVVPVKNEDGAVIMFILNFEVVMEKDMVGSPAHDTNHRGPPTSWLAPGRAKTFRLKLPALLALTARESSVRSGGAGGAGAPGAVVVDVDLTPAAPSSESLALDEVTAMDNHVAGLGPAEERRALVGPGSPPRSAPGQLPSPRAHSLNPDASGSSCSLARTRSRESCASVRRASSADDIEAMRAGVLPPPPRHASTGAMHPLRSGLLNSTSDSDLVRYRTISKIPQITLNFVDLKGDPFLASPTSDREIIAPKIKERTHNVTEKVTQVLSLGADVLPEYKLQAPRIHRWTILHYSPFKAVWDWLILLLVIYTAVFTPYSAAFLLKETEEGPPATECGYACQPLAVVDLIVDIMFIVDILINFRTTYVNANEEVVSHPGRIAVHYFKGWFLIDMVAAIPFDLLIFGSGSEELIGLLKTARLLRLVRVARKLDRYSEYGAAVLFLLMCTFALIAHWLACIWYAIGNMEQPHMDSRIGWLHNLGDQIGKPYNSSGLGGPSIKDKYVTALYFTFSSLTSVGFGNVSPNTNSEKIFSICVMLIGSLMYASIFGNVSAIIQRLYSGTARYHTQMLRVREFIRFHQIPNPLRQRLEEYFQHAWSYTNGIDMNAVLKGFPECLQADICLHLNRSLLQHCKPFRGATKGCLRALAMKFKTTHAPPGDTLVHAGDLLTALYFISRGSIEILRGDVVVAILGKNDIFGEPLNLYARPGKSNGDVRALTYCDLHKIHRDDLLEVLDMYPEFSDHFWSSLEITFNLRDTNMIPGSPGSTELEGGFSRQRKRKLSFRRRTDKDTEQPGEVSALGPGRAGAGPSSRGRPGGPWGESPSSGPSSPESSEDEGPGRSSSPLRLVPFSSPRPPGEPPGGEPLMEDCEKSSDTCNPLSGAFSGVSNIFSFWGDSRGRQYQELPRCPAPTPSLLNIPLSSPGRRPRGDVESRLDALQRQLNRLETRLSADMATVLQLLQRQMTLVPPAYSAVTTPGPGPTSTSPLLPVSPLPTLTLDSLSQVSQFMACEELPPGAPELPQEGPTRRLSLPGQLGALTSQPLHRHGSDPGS
Experimental: AVIVA's CHO cell line, which stably expresses hERG channels, was used for the study. Cells were cultured in DMEM/F12 containing 10% FBS, 1% penicillin/streptomycin and 500 μg/ml G418. Before testing, cells were harvested using Accumax (Innovative Cell Technologies).
For electrophysiological recordings, the following solutions were used:
External Solution: 2 mM CaCl2; 2 mM MgCl2; 4 mM KCl; 150 mM NaCl; 10 mM Glucose; 10 mM HEPES; 305-315 mOsm; pH 7.4 (adjusted with 5M NaOH.)
Internal Solution: 140 mM KCl; 10 mM MgCl2; 6 mM EGTA; 5 mM HEPES-Na; 5 mM ATP-Mg; 295-305 mOsm; pH 7.25 (adjusted with 1M KOH).
Whole cell recordings were performed using PX 7000A (Axon Instruments) with AVIVA's SealChip™ technology. Cells were voltage clamped at a holding potential of −80 mV. The hERG current was then activated by a depolarizing step to −50 mV for 300 ms. This first step at −50 mV was used as a baseline for measuring peak amplitude of the tail current. Next, a voltage step to +20 mV was applied for 5 s to activate the channels. Finally, a step back to −50 mV for 5 s removed activation and the deactivating tail current was recorded.
All test articles were prepared from 10 mM DMSO stock solutions. […]
After achieving whole cell configuration, cells were monitored for 90 s to assess stability and then washed with External Solution for 66 s. […]

[3] = Human immunodeficiency virus 1, MT4, 120 h, MT-4 cells, HIV-1 wild type, 5 days, CPE protection (Cell TiterGlo), read-out: MT4 EC50 (nM) against w.t.
[4] = Human immunodeficiency virus 1, MT4, read-out: MT4 EC50 (nM) against w.t. assay 2

Row | Structure (SMILES) | EC50 (HIV-1 HBX2 (wild type); [3]) | EC50 (HIV-1 HBX2 (wild type); [4]) | EC50 [1] | FC against mutant K103N [1] | EC50 [2] | FC against mutant Y181C [2] | hERG (hERG channels)
1 | Cc1cc(/C=C/C#N)cc(C)c1-c1cccc2c(N)nc(Nc3ncc(C#N)cn3)cc12 [Compound 1, (E)-2-((1-Amino-5-(4-(2-cyanovinyl)-2,6-dimethylphenyl)isoquinolin-3-yl)amino)pyrimidine-5-carbonitrile] | 6.4 nM | 4.5 nM | 6.4 nM | 1.4 | 51.6 nM | 11.5 | 
2 | Cc1cc(/C=C/C#N)cc(C)c1-c1cccc2c(N)nc(Nc3cnc(C#N)cn3)cc12 [Compound 2, (E)-5-((1-Amino-5-(4-(2-cyanovinyl)-2,6-dimethylphenyl)isoquinolin-3-yl)amino)pyrazine-2-carbonitrile] | 14.4 nM | 20.2 nM | 29.7 nM | 1.5 | 109 nM | 5.4 | 
3 | Cc1cc(/C=C/C#N)cc(C)c1-c1cccc2c(N)nc(Nc3ccc(C#N)nn3)cc12 [Compound 3, (E)-6-((1-Amino-5-(4-(2-cyanovinyl)-2,6-dimethylphenyl)isoquinolin-3-yl)amino)pyridazine-3-carbonitrile] | 17 nM | 22.7 nM | 36.4 nM | 1.6 | 174 nM | 7.7 | 
4 | Cc1cc(/C=C/C#N)cc(C)c1-c1cccc2c(N)nc(Nc3ccc(C#N)cn3)cc12 [Compound 4, (E)-6-((1-Amino-5-(4-(2-cyanovinyl)-2,6-dimethylphenyl)isoquinolin-3-yl)amino)nicotinonitrile] | 2.8 nM | 3.6 nM | 3.7 nM | 1.0 | 12 nM | 3.4 | 3 µM
5 | Cc1cc(/C=C/C#N)cc(C)c1-c1cccc2cnc(Nc3ccc(C#N)cn3)cc12 [Compound 5, (E)-6-((5-(4-(2-Cyanovinyl)-2,6-dimethylphenyl)isoquinolin-3-yl)amino)nicotinonitrile] | 4.2 nM | 4.7 nM | 4.7 nM | 1.0 | 12 nM | 2.5 | 
6 | Cc1cc(/C=C/C#N)cc(C)c1-c1cccc2cnc(Nc3ccc(C#N)cc3)cc12 [Compound 6, (E)-4-((5-(4-(2-Cyanovinyl)-2,6-dimethylphenyl)isoquinolin-3-yl)amino)benzonitrile] | 12.9 nM |  |  |  |  |  | 
7 | O=C1Nc2ccc(Cl)cc2[C@@](C#CC2CC2)(C(F)(F)F)O1 [Efavirenz, efavirenz, reference compound] | 1.3 nM | 1.6 nM | 46.4 nM | 28.9 | 3.8 nM | 2.3 | 
8 | Cc1ccnc2c1NC(=O)c1cccnc1N2C1CC1 [Nevirapine, nevirapine, reference compound] | 65 nM |  |  |  |  |  | 
9 | Cc1cc(/C=C/C#N)cc(C)c1Nc1ccnc(Nc2ccc(C#N)cc2)n1 [Rilpivirine, rilpivirine, reference compound] | 0.9 nM | 1.3 nM | 1.5 nM | 1.2 | 3.8 nM | 3.1 | 0.5 µM
